Reference: PMC9500072, “Topical application of an irreversible small molecule inhibitor of lysyl oxidases ameliorates skin scarring and fibrosis” (Nature Communications, 2022)
Several values for one entry are separate records, joined by “and”; a condition that tells them apart may be missing. Identical values can stand only once. Like-named read-outs stand apart in the source and are kept apart here.

Legend:
[1] = target: T1, Human Recombinant SSAO (Homo sapiens, UniProt Q16853); experiment: Compound oxidation assay (substrate propensity) by SSAO; assay type: biochemical; settings: for Oxidation by SSAO (hydrogen peroxide generated relative to DMSO): single concentration 30 µM
T1 sequence (Q16853 1-763): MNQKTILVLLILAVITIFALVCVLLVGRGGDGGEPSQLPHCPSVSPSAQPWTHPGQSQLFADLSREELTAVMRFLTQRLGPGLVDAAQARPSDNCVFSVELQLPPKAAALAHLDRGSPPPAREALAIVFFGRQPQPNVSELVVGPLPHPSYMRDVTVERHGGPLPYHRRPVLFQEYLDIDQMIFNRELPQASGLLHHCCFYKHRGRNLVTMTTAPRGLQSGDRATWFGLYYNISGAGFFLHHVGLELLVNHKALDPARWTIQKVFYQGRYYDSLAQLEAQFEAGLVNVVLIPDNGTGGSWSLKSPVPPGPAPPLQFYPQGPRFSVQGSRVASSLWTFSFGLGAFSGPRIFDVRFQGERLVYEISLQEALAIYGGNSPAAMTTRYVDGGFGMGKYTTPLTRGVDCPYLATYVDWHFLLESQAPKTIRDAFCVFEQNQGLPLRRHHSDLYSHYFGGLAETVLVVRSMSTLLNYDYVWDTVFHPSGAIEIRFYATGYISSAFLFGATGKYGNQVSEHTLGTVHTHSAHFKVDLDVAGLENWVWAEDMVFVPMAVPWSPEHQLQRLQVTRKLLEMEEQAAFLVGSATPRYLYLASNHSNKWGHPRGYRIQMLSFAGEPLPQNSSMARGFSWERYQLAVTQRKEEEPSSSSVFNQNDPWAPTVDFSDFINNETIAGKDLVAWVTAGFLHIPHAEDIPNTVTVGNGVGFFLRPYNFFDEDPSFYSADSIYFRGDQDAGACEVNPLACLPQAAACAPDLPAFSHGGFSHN
Description: For compound oxidation assays, the amount of hydrogen peroxide generated at a single concentration (30 µM) of compound relative to DMSO was measured.
Data are expressed as mean ± SEM. Subsequent statistical analysis was performed with unpaired two-sided Student’s t tests. *p < 0.05, **p < 0.01, ***p < 0.001and ****p < 0.0001. Source data are provided as a Source Data file.
This assay determines the substrate propensity of a compound relative to background (dimethyl sulfoxide only). Compound oxidation by rhSSAO was measured by fluorometric assay. Briefly, rhSSAO was incubated for 2 h at 37 °C in HEPES buffer before the addition of an equal volume of Amplex Red ([…]), horseradish peroxidase (4 U/ml), and test compound in the same buffer. The kinetics of the formation of resorufin was measured immediately using Optima reader (BMG Labtech GmbH, Ortenburg, Germany), at 37 °C.

[2] = target: T2, recombinant human LOXL3 (Homo sapiens, UniProt P58215); experiment: Amplex Red oxidation assay, LOXL3 inhibition; assay type: biochemical
T2 construct: purchased R&D Systems
T2 sequence (P58215 26-753): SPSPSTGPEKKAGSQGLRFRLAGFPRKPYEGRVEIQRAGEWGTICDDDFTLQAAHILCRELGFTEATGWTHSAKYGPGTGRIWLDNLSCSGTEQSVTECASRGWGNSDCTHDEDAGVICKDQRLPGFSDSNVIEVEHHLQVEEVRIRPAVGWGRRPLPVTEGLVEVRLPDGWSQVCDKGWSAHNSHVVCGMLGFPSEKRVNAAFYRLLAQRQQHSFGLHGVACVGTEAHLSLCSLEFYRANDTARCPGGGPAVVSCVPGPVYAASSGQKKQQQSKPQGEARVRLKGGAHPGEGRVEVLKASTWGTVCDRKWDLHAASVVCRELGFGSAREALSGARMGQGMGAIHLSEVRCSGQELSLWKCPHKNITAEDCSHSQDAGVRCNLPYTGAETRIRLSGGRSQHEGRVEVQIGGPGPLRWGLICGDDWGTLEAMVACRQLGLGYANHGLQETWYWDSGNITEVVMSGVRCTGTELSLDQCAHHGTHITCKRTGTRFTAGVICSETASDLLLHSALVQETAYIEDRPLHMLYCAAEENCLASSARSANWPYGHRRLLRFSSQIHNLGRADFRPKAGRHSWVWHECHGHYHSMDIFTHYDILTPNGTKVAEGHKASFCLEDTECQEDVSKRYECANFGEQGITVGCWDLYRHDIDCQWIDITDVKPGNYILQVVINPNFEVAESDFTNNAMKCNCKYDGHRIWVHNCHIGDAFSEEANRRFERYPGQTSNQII
Description: The measurement of the enzymatic activity of all lysyl oxidase family members was based on the detection of hydrogen peroxide with an Amplex-Red oxidation assay, as previously described; miniaturized in 384 well formats, with the appropriate combination of substrate and assay buffer for each individual enzyme. After a 30 min pre-incubation of the enzyme at 37 °C with the test compound (or with different incubation times for the time-dependency assay), one volume of reaction mixture containing 120 μM Amplex Red (AR) (Life Technologies), 1.5 U/mL horseradish peroxidase (HRP) (Sigma-Aldrich) and the specific substrate was added to each sample. The relative fluorescence units (RFU) were then measured every 2.5 min for 30 min at 37 °C, excitation 565 nm and emission 590, on a BMG Clariostar Microplate Reader. All the substrates were used at concentrations corresponding to their Km towards the corresponding enzyme, or with a range of different concentrations for the substrate competition experiments.
Lysyl oxidases assay buffer contained 1.2 M urea, 50 mM sodium borate buffer, pH 8.2 and 100 µM β-aminoproprionitrile (BAPN, Sigma-Aldrich) was used for low control.
Recombinant human LOXL1 was expressed and purified from cDNA (GeneArt) and 10 mM putrescine was used as substrate. Recombinant human and mouse LOXL2 (R&D Systems) were challenged with 5 mM putrescine (Sigma-Aldrich) as the substrate. Rat and dog recombinant LOXL2 were amplified and purified in house from HEK-293 clones kindly provided by Dr. Fernando Rodríguez Pascual, Madrid University, and used in the same conditions as for the human form. 2 mM putrescine was used as the substrate for recombinant human LOXL3 (R&D Systems) and LOXL4 (Dr. Fernando Rodríguez Pascual, university of Madrid, Spain) assays.

[3] = 30 min pre-incubation, read-out: rh LOXL3 IC50
[4] = read-out: Human Recombinant LOXL3 pIC50±SD (converted)

NC/C=C(\F)CS(=O)(=O)c1ccccc1 [PXS-4787]
Oxidation by SSAO (hydrogen peroxide generated relative to DMSO) [1]: 1.3 | IC50 [2, 3]: 1420 nM | inhibition at 30 µM ([2]; log conc -4.5229, read-out: Fig 2A inhibition (mean)): 99.7% | inhibition at 10 µM ([2]; log conc -5, read-out: Fig 2A inhibition (mean)): 94.8% | inhibition at 3.333 µM ([2]; log conc -5.4771, read-out: Fig 2A inhibition (mean)): 75.7% | inhibition at 1.111 µM ([2]; log conc -5.9542, read-out: Fig 2A inhibition (mean)): 41.8% | inhibition at 0.3704 µM ([2]; log conc -6.4313, read-out: Fig 2A inhibition (mean)): 18.9% | inhibition at 0.1235 µM ([2]; log conc -6.9083, read-out: Fig 2A inhibition (mean)): 6.04% | inhibition at 0.0412 µM ([2]; log conc -7.3851, read-out: Fig 2A inhibition (mean)): -0.564% | inhibition at 0.0137 µM ([2]; log conc -7.8633, read-out: Fig 2A inhibition (mean)): 1.57% | inhibition at 0.0046 µM ([2]; log conc -8.3372, read-out: Fig 2A inhibition (mean)): -2.27% | inhibition at […] ([2]; log conc -8.8239, read-out: Fig 2A inhibition (mean)): -2.78% | inhibition at 0.0005 µM ([2]; log conc -9.301, read-out: Fig 2A inhibition (mean)): -0.598% | IC50 [2, 4]: 1260 nM

NC/C=C(\F)C(F)(F)S(=O)(=O)c1ccccc1 [PXS-6302]
SSAO specificity (Fig 2F), oxidation, individual experiments [1]; 30: 1.48 and 1.33 and 1.2 and 1.19 and 1.18 and 1.24 and 1.1 and 1.3 and 1.37 and 1.13 and 1.23 | SSAO specificity (Fig 2F), oxidation, individual experiments [1]; 60: 1.4 and 1.33 and 1.41 | SSAO specificity (Fig 2F), oxidation, individual experiments [1]; 90: 1.53 and 2.99 and 4.36 | Oxidation by SSAO (hydrogen peroxide generated relative to DMSO) [1]: 1.3 | IC50 [2, 3]: 1540 nM | IC50 [2, 4]: 1580 nM

N#CCCN [BAPN, β-aminoproprionitrile, reference compound]
SSAO specificity (Fig 2F), oxidation, individual experiments [1]; 30: 1.24 and 1.43 and 1.55 and 1.3 and 1.39 | SSAO specificity (Fig 2F), oxidation, individual experiments [1]; 60: 2.24 and 2.72 and 2.02 and 1.5 and 1.72 | SSAO specificity (Fig 2F), oxidation, individual experiments [1]; 90: 4.91 and 2.48 and 2.66 and 3.66 | Human Recombinant LOXL3 pIC50±SD [2]: 6.3 ± 0.1 | IC50 [2, 3]: 510 nM
